Assay results: patent US6998411B2, “2-Methylheptylisonicotinate and process for production thereof” (Council of Scientific and Industrial Research, priority 2001, dated 2006)
Values after ≈ are worked out from the molar mass of the structure shown. Like-named read-outs stand apart in the source and are kept apart here.

Key:
Type in all cases: cell-based
[1] = test system: Rhizoctonia solani; experiment: antifungal activity, MIC
[2] = test system: F. moniliformae; experiment: antifungal activity, MIC
[3] = test system: E. coli; experiment: agar cup assay, zone of inhibition; settings: purified compound, 10 μg of the substance
Method: (§1) 2-Methylheptylisonicotinate of formula 1 was bioassayed following agar cup assay method (Grammer, 1976). […] The antibacterial activity of the bioactive molecule was tested against dominant bacterial strains such as Bacillus subtilis, E. coli, Shigella sp., Klebsiella sp. and Proteus mirabilis. Maximum inhibition was recorded in E. coli (30 mm in diameter) and Proteus mirabilis (28 mm). […] Maximum zone of inhibition was recorded in Fusarium solani and F. semitechtum (26 mm with 10 μg of the substance), and in F. oxysporum inhibition zone was 25 mm. Similar inhibition was also observed in F. moniliformae and Rhizoctonia solani (24 mm and 22 mm) respectively (Tables 2, 3 & 4). The above antibiotic activity against dominant pathogens is the clear indication of the potential application of the compound for both agricultural and medical purposes.
as §1, with “2-Methylheptylisonicotinate” for “2-Methylheptylisonicotinate of formula”, “(Table” for “(Tables”, “4).” for “4). The above antibiotic activity against dominant pathogens is the clear indication of the potential application of the compound for both agricultural and medical purposes.”

[4] = test system: Klebsiella sp.; experiment: agar cup assay, zone of inhibition; settings: purified compound, 10 μg of the substance
Method: as §1
as §1, with “2-Methylheptylisonicotinate” for “2-Methylheptylisonicotinate of formula”, “(Table” for “(Tables”, “4).” for “4). The above antibiotic activity against dominant pathogens is the clear indication of the potential application of the compound for both agricultural and medical purposes.”

[5] = test system: Proteus mirabilis; experiment: agar cup assay, zone of inhibition; settings: purified compound, 10 μg of the substance
Method: as §1
as §1, with “2-Methylheptylisonicotinate” for “2-Methylheptylisonicotinate of formula”, “(Table” for “(Tables”, “4).” for “4). The above antibiotic activity against dominant pathogens is the clear indication of the potential application of the compound for both agricultural and medical purposes.”

[6] = test system: Fusarium moniliforme; experiment: agar cup assay, zone of inhibition; settings: purified compound, 10 μg of the substance
Method: as §1
as §1, with “2-Methylheptylisonicotinate” for “2-Methylheptylisonicotinate of formula”, “(Table” for “(Tables”, “4).” for “4). The above antibiotic activity against dominant pathogens is the clear indication of the potential application of the compound for both agricultural and medical purposes.”

[7] = test system: F. semitechtum; experiment: agar cup assay, zone of inhibition; settings: purified compound, 10 μg of the substance
Method: as §1
as §1, with “2-Methylheptylisonicotinate” for “2-Methylheptylisonicotinate of formula”, “(Table” for “(Tables”, “4).” for “4). The above antibiotic activity against dominant pathogens is the clear indication of the potential application of the compound for both agricultural and medical purposes.”

[8] = test system: Rhizoctonia solani; experiment: agar cup assay, zone of inhibition; settings: purified compound, 10 μg of the substance
Method: as §1
as §1, with “2-Methylheptylisonicotinate” for “2-Methylheptylisonicotinate of formula”, “(Table” for “(Tables”, “4).” for “4). The above antibiotic activity against dominant pathogens is the clear indication of the potential application of the compound for both agricultural and medical purposes.”

[9] = test system: Shigella sp.; experiment: agar cup assay, zone of inhibition; settings: purified compound, 10 μg of the substance
Method: as §1
as §1, with “2-Methylheptylisonicotinate” for “2-Methylheptylisonicotinate of formula”, “(Table” for “(Tables”, “4).” for “4). The above antibiotic activity against dominant pathogens is the clear indication of the potential application of the compound for both agricultural and medical purposes.”

[10] = test system: Bacillus subtilis; experiment: agar cup assay, zone of inhibition; settings: purified compound, 10 μg of the substance
Method: as §1
as §1, with “2-Methylheptylisonicotinate” for “2-Methylheptylisonicotinate of formula”, “(Table” for “(Tables”, “4).” for “4). The above antibiotic activity against dominant pathogens is the clear indication of the potential application of the compound for both agricultural and medical purposes.”

[11] = test system: F. solani; experiment: agar cup assay, zone of inhibition; settings: purified compound, 10 μg of the substance
Method: as §1
as §1, with “2-Methylheptylisonicotinate” for “2-Methylheptylisonicotinate of formula”, “(Table” for “(Tables”, “4).” for “4). The above antibiotic activity against dominant pathogens is the clear indication of the potential application of the compound for both agricultural and medical purposes.”

[12] = test system: F. oxysporum; experiment: agar cup assay, zone of inhibition; settings: purified compound, 10 μg of the substance
Method: as §1
as §1, with “2-Methylheptylisonicotinate” for “2-Methylheptylisonicotinate of formula”, “(Table” for “(Tables”, “4).” for “4). The above antibiotic activity against dominant pathogens is the clear indication of the potential application of the compound for both agricultural and medical purposes.”

[13] = test system: Klebsiella sp.; experiment: antibacterial activity, MIC
[14] = test system: Shigella sp.; experiment: antibacterial activity, MIC
[15] = test system: Arthrobacter sp.; experiment: antibacterial activity, MIC
[16] = test system: Bacillus subtilis; experiment: antibacterial activity, MIC
[17] = test system: E. coli; experiment: antibacterial activity, MIC; settings: Escherichia coli
[18] = test system: F. oxysponim; experiment: antifungal activity, MIC
[19] = test system: F. semitectum; experiment: antifungal activity, MIC; settings: Fusarium incarnatum
[20] = test system: Proteus mirabilis; experiment: antibacterial activity, MIC
[21] = test system: F. solani; experiment: antifungal activity, MIC; settings: Fusarium solani
[22] = Fusarium oxysporum, read-out: MIC

| SMILES | MIC [1] [µg/mL] | MIC ([2]; read-out: MIC) [µg/mL] | MIC [13] [µg/mL] | MIC [14] [µg/mL] | MIC [15] [µg/mL] | MIC [16] [µg/mL] | MIC [17] [µg/mL] | MIC [18, 22] [µg/mL] | MIC [19] [µg/mL] | MIC [20] [µg/mL] | MIC [21] [µg/mL] | other results |
| --- | --- | --- | --- | --- | --- | --- | --- | --- | --- | --- | --- | --- |
| CCCCCC(C)COC(=O)c1ccncc1 (stereo not shown) [Compound 1, 2-methylheptylisonicotinate] | 20 (≈ 85 µM) | 45 (≈ 191 µM) | 50 (≈ 212 µM) | 60 (≈ 255 µM) | 40 (≈ 170 µM) | 50 (≈ 212 µM) | 70 (≈ 297 µM) | 43 (≈ 183 µM) | 20 (≈ 85 µM) | 40 (≈ 170 µM) | 20 (≈ 85 µM) | MIC ([2]; listed as I): 42 µg/mL (≈ 178 µM); Inhibition zone [3]: 30 mm; Inhibition zone [4]: 18 mm; Inhibition zone [5]: 28 mm; Inhibition zone [6]: 24 mm; Inhibition zone [7]: 26 mm; Inhibition zone [8]: 22 mm; Inhibition zone [9]: 20 mm; Inhibition zone [10]: 20 mm; Inhibition zone [11]: 26 mm; Inhibition zone [12]: 25 mm; MIC ([18]; F. oxysponim (F. oxysporum), listed as I): 45 µg/mL (≈ 191 µM) |
| NNC(=O)c1ccncc1 [Isoniazid, isonicotinic acid hydrazide, reference compound] | 250 (≈ 1820 µM) | 200 (≈ 1460 µM) | 250 (≈ 1820 µM) | 300 (≈ 2190 µM) | 150 (≈ 1090 µM) | 150 (≈ 1090 µM) | 250 (≈ 1820 µM) | 350 (≈ 2550 µM) | 300 (≈ 2190 µM) | 200 (≈ 1460 µM) | 300 (≈ 2190 µM) | – |
